Structures are written as SMILES. pKi: −log10 of the molar value.

Consider 6 compounds from ChEMBL document CHEMBL5442175, “EUbOPEN Chemogenomics Library - PDSP Secondary Binding” (2024).

Test [1] concerns the target Beta-3 adrenergic receptor (Homo sapiens, UniProt P13945). Kind of test: PDSP Secondary Binding target: ADRB3 - Compounds are tested at 10 uM concentration, plate are incubated at room temperature in the dark for 90 minutes. Reaction are stopped by vacuum filtration onto 0.3% polyethyleneimine soaked filter mats using Filtermate harvester. Scintillation cocktail is then melted onto microwave-dried filters on a hot plate and the radio activity is counted in Microbia counter.

Test [2] deals with T1, Alpha-1B adrenergic receptor (Homo sapiens, UniProt P35368).
T1 sequence (P35368 whole entry): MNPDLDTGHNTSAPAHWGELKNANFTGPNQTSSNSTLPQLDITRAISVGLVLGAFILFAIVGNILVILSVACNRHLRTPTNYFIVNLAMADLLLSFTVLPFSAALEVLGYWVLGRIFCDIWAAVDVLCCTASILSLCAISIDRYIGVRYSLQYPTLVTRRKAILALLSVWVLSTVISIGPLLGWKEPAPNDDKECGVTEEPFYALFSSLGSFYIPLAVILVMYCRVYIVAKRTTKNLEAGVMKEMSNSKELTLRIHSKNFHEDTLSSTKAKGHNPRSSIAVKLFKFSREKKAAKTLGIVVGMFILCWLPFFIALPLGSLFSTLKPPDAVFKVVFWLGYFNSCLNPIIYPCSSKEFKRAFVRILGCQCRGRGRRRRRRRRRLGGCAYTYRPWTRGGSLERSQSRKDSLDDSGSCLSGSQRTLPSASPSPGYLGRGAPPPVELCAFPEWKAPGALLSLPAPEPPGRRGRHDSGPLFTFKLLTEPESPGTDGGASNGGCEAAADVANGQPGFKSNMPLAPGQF
Description: PDSP Secondary Binding target: ADRA1B - Compounds are tested at 10 uM concentration, plate are incubated at room temperature in the dark for 90 minutes. Reaction are stopped by vacuum filtration onto 0.3% polyethyleneimine soaked filter mats using Filtermate harvester. Scintillation cocktail is then melted onto microwave-dried filters on a hot plate and the radio activity is counted in Microbia counter.

Test [3] deals with T2, Alpha-1D adrenergic receptor (Homo sapiens, UniProt P25100).
T2 sequence (P25100 whole entry): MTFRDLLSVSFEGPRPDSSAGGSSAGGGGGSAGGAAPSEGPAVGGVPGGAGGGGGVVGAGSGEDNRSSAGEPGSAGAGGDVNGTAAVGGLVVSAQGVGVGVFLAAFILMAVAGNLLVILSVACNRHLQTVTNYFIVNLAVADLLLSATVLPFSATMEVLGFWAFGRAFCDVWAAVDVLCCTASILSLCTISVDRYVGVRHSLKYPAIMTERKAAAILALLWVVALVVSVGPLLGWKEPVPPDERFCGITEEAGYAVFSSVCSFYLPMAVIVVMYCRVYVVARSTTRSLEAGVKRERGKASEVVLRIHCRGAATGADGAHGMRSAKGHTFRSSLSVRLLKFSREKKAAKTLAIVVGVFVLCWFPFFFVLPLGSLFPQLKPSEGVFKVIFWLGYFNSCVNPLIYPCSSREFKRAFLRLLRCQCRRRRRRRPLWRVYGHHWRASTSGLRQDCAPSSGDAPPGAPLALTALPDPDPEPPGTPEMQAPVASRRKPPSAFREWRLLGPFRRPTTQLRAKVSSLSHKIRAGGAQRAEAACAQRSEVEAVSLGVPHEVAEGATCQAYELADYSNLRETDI
Description: PDSP Secondary Binding target: ADRA1D - Compounds are tested at 10 uM concentration, plate are incubated at room temperature in the dark for 90 minutes. Reaction are stopped by vacuum filtration onto 0.3% polyethyleneimine soaked filter mats using Filtermate harvester. Scintillation cocktail is then melted onto microwave-dried filters on a hot plate and the radio activity is counted in Microbia counter.

Test [4] concerns the target Sodium-dependent serotonin transporter (Homo sapiens, UniProt P31645). Description: PDSP Secondary Binding target: SLC6A4 - Compounds are tested at 10 uM concentration, plate are incubated at room temperature in the dark for 90 minutes. Reaction are stopped by vacuum filtration onto 0.3% polyethyleneimine soaked filter mats using Filtermate harvester. Scintillation cocktail is then melted onto microwave-dried filters on a hot plate and the radio activity is counted in Microbia counter.

Test [5] addresses Translocator protein (Homo sapiens, UniProt P30536). Description: PDSP Secondary Binding target: TSPO - Compounds are tested at 10 uM concentration, plate are incubated at room temperature in the dark for 90 minutes. Reaction are stopped by vacuum filtration onto 0.3% polyethyleneimine soaked filter mats using Filtermate harvester. Scintillation cocktail is then melted onto microwave-dried filters on a hot plate and the radio activity is counted in Microbia counter.

The target in test [6] is Sodium-dependent dopamine transporter (Homo sapiens, UniProt Q01959). Kind of test: PDSP Secondary Binding target: SLC6A3 - Compounds are tested at 10 uM concentration, plate are incubated at room temperature in the dark for 90 minutes. Reaction are stopped by vacuum filtration onto 0.3% polyethyleneimine soaked filter mats using Filtermate harvester. Scintillation cocktail is then melted onto microwave-dried filters on a hot plate and the radio activity is counted in Microbia counter.

The target of test [7] is T3, Alpha-2B adrenergic receptor (Homo sapiens, UniProt P18089).
T3 sequence (P18089 whole entry): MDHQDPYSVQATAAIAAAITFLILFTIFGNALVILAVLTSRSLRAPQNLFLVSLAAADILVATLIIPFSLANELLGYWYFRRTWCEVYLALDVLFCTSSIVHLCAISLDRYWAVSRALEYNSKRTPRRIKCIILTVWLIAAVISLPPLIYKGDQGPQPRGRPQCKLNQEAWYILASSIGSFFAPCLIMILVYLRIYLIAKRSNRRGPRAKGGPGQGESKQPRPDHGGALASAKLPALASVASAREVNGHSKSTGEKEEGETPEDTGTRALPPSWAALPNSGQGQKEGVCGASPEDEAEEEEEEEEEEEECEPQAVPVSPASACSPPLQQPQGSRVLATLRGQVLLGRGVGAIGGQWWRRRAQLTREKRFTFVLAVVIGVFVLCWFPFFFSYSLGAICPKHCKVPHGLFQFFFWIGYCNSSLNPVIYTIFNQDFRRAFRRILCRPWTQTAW
Description: PDSP Secondary Binding target: ADRA2B - Compounds are tested at 10 uM concentration, plate are incubated at room temperature in the dark for 90 minutes. Reaction are stopped by vacuum filtration onto 0.3% polyethyleneimine soaked filter mats using Filtermate harvester. Scintillation cocktail is then melted onto microwave-dried filters on a hot plate and the radio activity is counted in Microbia counter.

Test [8] concerns the target Sigma non-opioid intracellular receptor 1 (Homo sapiens, UniProt Q99720). Kind of test: PDSP Secondary Binding target: SIGMAR1 - Compounds are tested at 10 uM concentration, plate are incubated at room temperature in the dark for 90 minutes. Reaction are stopped by vacuum filtration onto 0.3% polyethyleneimine soaked filter mats using Filtermate harvester. Scintillation cocktail is then melted onto microwave-dried filters on a hot plate and the radio activity is counted in Microbia counter.

In test [9] the target is Sigma intracellular receptor 2 (Homo sapiens, UniProt Q5BJF2). Description: PDSP Secondary Binding target: TMEM97 - Compounds are tested at 10 uM concentration, plate are incubated at room temperature in the dark for 90 minutes. Reaction are stopped by vacuum filtration onto 0.3% polyethyleneimine soaked filter mats using Filtermate harvester. Scintillation cocktail is then melted onto microwave-dried filters on a hot plate and the radio activity is counted in Microbia counter.

Test [10] deals with D(3) dopamine receptor (Homo sapiens, UniProt P35462). Description: PDSP Secondary Binding target: DRD3 - Compounds are tested at 10 uM concentration, plate are incubated at room temperature in the dark for 90 minutes. Reaction are stopped by vacuum filtration onto 0.3% polyethyleneimine soaked filter mats using Filtermate harvester. Scintillation cocktail is then melted onto microwave-dried filters on a hot plate and the radio activity is counted in Microbia counter.

Test [11] has as its target Kappa-type opioid receptor (Homo sapiens, UniProt P41145). Kind of test: PDSP Secondary Binding target: OPRK1 - Compounds are tested at 10 uM concentration, plate are incubated at room temperature in the dark for 90 minutes. Reaction are stopped by vacuum filtration onto 0.3% polyethyleneimine soaked filter mats using Filtermate harvester. Scintillation cocktail is then melted onto microwave-dried filters on a hot plate and the radio activity is counted in Microbia counter.

The target of test [12] is Sodium-dependent noradrenaline transporter (Homo sapiens, UniProt P23975). Description: PDSP Secondary Binding target: SLC6A2 - Compounds are tested at 10 uM concentration, plate are incubated at room temperature in the dark for 90 minutes. Reaction are stopped by vacuum filtration onto 0.3% polyethyleneimine soaked filter mats using Filtermate harvester. Scintillation cocktail is then melted onto microwave-dried filters on a hot plate and the radio activity is counted in Microbia counter.

The target of test [13] is Mu-type opioid receptor (Homo sapiens, UniProt P35372). Description: PDSP Secondary Binding target: OPRM1 - Compounds are tested at 10 uM concentration, plate are incubated at room temperature in the dark for 90 minutes. Reaction are stopped by vacuum filtration onto 0.3% polyethyleneimine soaked filter mats using Filtermate harvester. Scintillation cocktail is then melted onto microwave-dried filters on a hot plate and the radio activity is counted in Microbia counter.

The target in test [14] is T4, Alpha-2A adrenergic receptor (Homo sapiens, UniProt P08913).
T4 sequence (P08913 whole entry): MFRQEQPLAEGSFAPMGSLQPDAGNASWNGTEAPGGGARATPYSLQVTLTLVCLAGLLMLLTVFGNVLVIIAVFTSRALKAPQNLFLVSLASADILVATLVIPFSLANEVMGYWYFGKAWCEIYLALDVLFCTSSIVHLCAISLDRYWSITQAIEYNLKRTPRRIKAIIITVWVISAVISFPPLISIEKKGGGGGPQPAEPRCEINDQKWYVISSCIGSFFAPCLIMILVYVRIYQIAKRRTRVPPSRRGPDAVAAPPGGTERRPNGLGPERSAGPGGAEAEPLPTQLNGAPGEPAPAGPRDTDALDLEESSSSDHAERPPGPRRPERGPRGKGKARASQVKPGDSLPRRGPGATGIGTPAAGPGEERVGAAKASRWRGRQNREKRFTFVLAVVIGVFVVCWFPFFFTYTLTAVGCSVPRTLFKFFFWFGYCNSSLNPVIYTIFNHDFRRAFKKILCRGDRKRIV
Description: PDSP Secondary Binding target: ADRA2A - Compounds are tested at 10 uM concentration, plate are incubated at room temperature in the dark for 90 minutes. Reaction are stopped by vacuum filtration onto 0.3% polyethyleneimine soaked filter mats using Filtermate harvester. Scintillation cocktail is then melted onto microwave-dried filters on a hot plate and the radio activity is counted in Microbia counter.

Test [15] concerns the target 5-hydroxytryptamine receptor 2B (Homo sapiens, UniProt P41595). Kind of test: PDSP Secondary Binding target: HTR2B - Compounds are tested at 10 uM concentration, plate are incubated at room temperature in the dark for 90 minutes. Reaction are stopped by vacuum filtration onto 0.3% polyethyleneimine soaked filter mats using Filtermate harvester. Scintillation cocktail is then melted onto microwave-dried filters on a hot plate and the radio activity is counted in Microbia counter.

Chain of Beta-3 adrenergic receptor (P13945 whole entry): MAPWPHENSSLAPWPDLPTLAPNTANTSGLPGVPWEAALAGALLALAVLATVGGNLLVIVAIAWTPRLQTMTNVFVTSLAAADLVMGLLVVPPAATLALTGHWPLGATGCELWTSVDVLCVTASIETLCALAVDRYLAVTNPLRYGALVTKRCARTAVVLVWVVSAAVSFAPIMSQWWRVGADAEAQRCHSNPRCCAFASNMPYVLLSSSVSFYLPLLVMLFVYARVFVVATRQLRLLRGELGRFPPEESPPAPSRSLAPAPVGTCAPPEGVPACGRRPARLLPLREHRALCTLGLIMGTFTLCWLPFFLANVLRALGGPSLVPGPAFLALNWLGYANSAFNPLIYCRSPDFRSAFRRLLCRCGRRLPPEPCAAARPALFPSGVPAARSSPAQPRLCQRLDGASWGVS
Chain of Translocator protein (P30536 whole entry): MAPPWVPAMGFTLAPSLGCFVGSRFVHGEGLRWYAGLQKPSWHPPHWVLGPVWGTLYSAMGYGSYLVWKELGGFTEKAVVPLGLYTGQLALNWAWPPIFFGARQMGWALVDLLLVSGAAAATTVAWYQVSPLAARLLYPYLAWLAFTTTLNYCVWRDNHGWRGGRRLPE
Chain of Sigma intracellular receptor 2 (Q5BJF2 whole entry): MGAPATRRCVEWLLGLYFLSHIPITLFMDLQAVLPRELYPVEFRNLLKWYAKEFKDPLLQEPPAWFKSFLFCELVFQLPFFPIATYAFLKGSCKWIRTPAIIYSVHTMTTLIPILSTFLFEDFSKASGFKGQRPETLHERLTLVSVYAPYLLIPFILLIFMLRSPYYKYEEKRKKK
Chain of Sigma non-opioid intracellular receptor 1 (Q99720 whole entry): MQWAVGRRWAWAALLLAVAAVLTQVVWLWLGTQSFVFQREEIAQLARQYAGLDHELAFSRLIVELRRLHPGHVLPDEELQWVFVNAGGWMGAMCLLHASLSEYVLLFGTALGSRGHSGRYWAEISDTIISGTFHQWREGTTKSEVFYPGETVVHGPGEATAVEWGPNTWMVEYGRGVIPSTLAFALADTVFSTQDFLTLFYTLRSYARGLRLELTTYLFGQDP
Chain of Sodium-dependent dopamine transporter (Q01959 whole entry): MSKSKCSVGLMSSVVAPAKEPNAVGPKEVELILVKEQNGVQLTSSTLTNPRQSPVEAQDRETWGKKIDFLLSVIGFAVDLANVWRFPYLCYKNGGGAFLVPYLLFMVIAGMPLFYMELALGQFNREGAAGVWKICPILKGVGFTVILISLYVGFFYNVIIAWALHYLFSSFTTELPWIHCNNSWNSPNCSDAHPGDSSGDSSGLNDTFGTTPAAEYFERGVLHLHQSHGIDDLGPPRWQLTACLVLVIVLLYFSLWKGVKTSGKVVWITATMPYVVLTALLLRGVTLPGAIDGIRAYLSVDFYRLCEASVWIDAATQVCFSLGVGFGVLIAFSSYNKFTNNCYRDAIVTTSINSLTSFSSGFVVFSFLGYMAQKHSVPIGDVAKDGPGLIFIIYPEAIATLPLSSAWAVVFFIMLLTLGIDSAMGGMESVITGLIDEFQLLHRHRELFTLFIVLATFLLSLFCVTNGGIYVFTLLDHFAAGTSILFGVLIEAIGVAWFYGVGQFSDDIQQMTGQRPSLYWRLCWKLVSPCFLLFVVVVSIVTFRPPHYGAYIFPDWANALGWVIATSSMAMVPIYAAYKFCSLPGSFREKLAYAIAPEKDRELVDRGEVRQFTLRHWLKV
Chain of Sodium-dependent serotonin transporter (P31645 whole entry): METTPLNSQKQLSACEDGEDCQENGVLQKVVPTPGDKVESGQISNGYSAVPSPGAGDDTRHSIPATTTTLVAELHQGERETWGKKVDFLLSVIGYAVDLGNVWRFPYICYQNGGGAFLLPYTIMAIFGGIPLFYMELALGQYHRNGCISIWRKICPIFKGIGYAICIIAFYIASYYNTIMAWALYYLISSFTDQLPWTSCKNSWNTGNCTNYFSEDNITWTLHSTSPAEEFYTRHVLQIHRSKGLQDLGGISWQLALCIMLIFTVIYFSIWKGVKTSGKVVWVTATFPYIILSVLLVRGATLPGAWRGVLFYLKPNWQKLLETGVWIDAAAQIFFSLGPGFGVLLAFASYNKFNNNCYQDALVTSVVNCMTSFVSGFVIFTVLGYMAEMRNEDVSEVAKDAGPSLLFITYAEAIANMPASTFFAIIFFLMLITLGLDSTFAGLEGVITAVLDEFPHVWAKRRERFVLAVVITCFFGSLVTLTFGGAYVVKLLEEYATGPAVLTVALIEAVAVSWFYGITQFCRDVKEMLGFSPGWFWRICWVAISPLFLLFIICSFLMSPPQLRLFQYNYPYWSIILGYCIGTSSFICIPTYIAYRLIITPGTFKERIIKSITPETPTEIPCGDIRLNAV
Chain of D(3) dopamine receptor (P35462 whole entry): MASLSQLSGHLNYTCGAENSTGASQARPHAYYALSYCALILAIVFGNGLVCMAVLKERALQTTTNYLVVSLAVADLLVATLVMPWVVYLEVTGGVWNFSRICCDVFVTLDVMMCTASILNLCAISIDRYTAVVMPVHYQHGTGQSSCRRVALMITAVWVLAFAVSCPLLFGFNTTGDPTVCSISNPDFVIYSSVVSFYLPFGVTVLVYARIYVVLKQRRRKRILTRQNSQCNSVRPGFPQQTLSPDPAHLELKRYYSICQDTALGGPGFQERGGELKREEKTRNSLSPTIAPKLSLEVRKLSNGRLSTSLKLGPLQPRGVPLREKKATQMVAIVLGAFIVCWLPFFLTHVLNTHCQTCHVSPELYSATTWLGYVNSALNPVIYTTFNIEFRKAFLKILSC
Chain of Kappa-type opioid receptor (P41145 whole entry): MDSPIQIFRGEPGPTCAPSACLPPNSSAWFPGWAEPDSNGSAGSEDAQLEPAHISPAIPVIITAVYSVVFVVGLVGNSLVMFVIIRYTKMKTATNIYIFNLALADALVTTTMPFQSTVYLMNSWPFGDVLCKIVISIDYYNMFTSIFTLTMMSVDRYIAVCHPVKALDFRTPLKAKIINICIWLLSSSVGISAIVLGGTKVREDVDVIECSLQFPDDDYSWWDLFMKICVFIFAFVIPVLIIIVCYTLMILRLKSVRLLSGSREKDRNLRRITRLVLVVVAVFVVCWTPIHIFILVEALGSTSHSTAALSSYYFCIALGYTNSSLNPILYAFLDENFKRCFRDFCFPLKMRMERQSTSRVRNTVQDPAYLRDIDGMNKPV
Chain of Mu-type opioid receptor (P35372 whole entry): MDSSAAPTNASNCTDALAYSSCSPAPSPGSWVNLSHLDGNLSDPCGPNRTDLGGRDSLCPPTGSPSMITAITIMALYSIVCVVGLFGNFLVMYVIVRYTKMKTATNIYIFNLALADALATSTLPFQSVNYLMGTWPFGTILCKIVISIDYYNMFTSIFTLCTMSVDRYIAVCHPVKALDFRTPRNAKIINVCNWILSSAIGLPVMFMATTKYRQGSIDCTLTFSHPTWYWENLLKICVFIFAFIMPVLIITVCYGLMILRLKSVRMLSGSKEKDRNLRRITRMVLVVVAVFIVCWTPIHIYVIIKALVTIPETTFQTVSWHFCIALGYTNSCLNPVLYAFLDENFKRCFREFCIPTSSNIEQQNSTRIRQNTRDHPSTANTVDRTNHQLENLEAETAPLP
Chain of 5-hydroxytryptamine receptor 2B (P41595 whole entry): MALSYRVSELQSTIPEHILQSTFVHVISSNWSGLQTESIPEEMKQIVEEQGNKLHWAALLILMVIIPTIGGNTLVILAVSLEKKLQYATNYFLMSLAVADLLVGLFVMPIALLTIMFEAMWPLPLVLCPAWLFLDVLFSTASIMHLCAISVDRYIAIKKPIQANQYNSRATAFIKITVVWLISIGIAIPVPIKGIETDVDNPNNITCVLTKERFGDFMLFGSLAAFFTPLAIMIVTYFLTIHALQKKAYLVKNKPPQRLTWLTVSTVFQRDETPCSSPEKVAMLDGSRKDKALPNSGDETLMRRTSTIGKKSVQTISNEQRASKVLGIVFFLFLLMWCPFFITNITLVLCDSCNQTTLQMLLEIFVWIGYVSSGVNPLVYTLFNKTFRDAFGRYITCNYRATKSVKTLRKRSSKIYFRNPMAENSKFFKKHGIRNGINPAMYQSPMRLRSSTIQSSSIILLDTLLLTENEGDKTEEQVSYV
Chain of Sodium-dependent noradrenaline transporter (P23975 whole entry): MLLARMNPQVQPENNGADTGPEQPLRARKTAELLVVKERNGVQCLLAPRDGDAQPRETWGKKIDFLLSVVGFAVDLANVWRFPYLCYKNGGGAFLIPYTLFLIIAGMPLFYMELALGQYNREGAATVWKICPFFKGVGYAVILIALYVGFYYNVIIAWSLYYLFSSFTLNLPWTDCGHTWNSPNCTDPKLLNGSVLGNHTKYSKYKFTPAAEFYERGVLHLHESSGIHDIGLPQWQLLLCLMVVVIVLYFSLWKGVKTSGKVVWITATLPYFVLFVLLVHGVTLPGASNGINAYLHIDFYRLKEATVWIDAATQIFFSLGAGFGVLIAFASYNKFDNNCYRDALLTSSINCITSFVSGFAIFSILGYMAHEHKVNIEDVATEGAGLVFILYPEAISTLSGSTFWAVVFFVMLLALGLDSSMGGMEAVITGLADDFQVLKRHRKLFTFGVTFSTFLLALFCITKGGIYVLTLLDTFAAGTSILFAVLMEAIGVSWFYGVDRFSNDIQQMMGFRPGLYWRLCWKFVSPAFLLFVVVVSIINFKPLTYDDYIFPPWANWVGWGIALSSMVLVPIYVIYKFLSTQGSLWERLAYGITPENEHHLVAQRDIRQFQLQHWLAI

As usually defined, the pKi is −log10 of the Ki, conventionally taken in molar units. Take `Cc1c(OCc2cccc(-c3ccc(C(=O)O)cc3)c2)cc2c(c1C)C(=O)C(C1CCCC1)C2` (stereo not given): the pKi in test [1] is 5.30; in [2] it was less than 5.00; in [3], less than 5.00; in [4], less than 5.00.

Take `N#Cc1ccc(NC(=O)Nc2ccccc2Br)c2nn[nH]c12`: the pKi is 5.06 in test [1], 5.52 in [5] and 5.54 in test [6].

Take `Cc1nc(C#Cc2ccnc(Cl)c2)c(C)n1-c1ccc(OC(F)(F)F)cc1`: the pKi was 5.16 in [1]; less than 5.00 in test [7]; 5.57 in test [8]; 5.71 in [5]; 5.77 in test [9].

Consider `Cc1csc2c(N[C@@H](C)CN3CCN(S(=O)(=O)c4ccc(Cl)c(Cl)c4)CC3)ncnc12`, for which the pKi in test [10] was 6.24; in [1], 5.05; in [11] it was 6.31; in test [8], 6.02; in test [5] it was 6.10; in test [9], 5.70.

Take `C[C@@H](NCCc1ccc(O)cc1)[C@@H](O)c1ccc(O)cc1` (relative stereo): the negative logarithm of the Ki (pKi) is 5.59 in test [12]; 5.43 in test [1]; 6.23 in test [8]; 5.10 in test [13]; 5.39 in test [4]; 5.57 in [9].

As to `Cc1cc([C@@H](C)Nc2cccc(-c3cc(C)c(C(=O)N[C@@H](C)C(=O)O)c(C)c3)c2)ccc1Cl`, the pKi in test [14] is less than 5.00; in [10] it was 5.95; in [1] it was less than 5.00; in test [15] it was 5.61; in test [5], 5.86; in test [6] it was 6.40.
